Values after ≈ are worked out from the molar mass of the structure shown.
Columns and labels:
HT-29 cells [1] = test: Cell growth inhibition assay (MTT); type: cell-based, human; settings: Homo sapiens, HT-29, 72 h after drug exposure
Method: (§1) The cell lines were obtained from ATTC (Manassas, VA, USA). HeLa (human cervix epithelioid carcinoma), MCF7 (human breast adenocarcinoma), HepG2 (human hepatocellular carcinoma), U87 MG (human glioblastoma), T98G (human glioblastoma), GL261 (murine glioma), LNCaP (human prostate cancer), PC-3 (human prostate cancer), and HEK-293 (human embryonic kidney) were grown in Dulbecco’s modified Eagle’s medium (DMEM, Gibco, Waltham, MA, USA), supplemented with 10% (v/v) heat-inactivated fetal bovine serum (HIFBS, Sigma-Aldrich, St. Louis, MO, USA)), 2 mM L-glutamine, 100 μg/mL streptomycin, and 100 units/mL penicillin (Gibco, Waltham, MA, USA) at 37 °C in saturated humidity atmosphere containing 95% air and 5% CO2. Cell line HT-29 (human colon carcinoma) was grown in Roswell Park Memorial Institute (RPMI) 1640 medium (Gibco, Whaltman, MA, USA) supplemented with 10% HIFBS, 100 μg/mL streptomycin, and 100 units/mL penicillin (Gibco, Whaltman, MA, USA) at 37 °C in humidified 95% air and 5% CO2 atmosphere. MycoAlert kit (Lonza, Norwest, Australia) was used to routinely check the presence of mycoplasma, and only mycoplasma-free cells were employed in the experiments.
(§2) Cells were plated in 96-well plates (100 µL/well) at the following concentrations: 30,000 cells/mL (HepG2, U87 MG, T98G, C6, LNCaP, PC3, and HT-29 cells) or 15,000 cells/mL (HeLa and MCF-7 cells). Previous experiments were performed to choose the optimal cell concentration (70–80% confluence) and avoid the formation of cell aggregates. Cells were incubated in complete DMEM or RPMI 1640 medium (see above) at 37 °C and 5% CO2 atmosphere for 24 h to allow for cell attachment to the plate. Then, every compound was added (10 µL/well) to a final concentration of 10 µM. Non-treated cells were used as negative controls. The antiproliferative activity of compounds was measured 72 h after the treatments using the MTT reagent (3-[4,5-dimethylthiazol-2-yl]-2,5-diphenyltetrazolium bromide), (MTT Thiazolyl Blue Tetrazolium Bromide, Sigma-Aldrich, St. Louis, MO, USA) dissolved in PBS at 5 mg/mL. Compounds showing antiproliferative effects at 10 µM were selected to determine their IC50 value. For that purpose, compounds were used at different concentrations ranging from 10^−10 to 10^−2 M. Measurements were performed in triplicate, and each experiment was repeated three times. The IC50 value was determined for every compound using Origin software (OriginLab, Washington, USA). To study the sensitivity to MDR efflux pumps of compounds, the IC50 values were determined by following the same procedure but in the presence of verapamil (final concentration of 10 µM).

HeLa cells = test: Cell growth inhibition assay (MTT); type: cell-based, human; settings: Homo sapiens, HeLa, 72 h after drug exposure
Method: as §1, §2

HepG2 cells = test: Cell growth inhibition assay (MTT); type: cell-based, human; settings: Homo sapiens, HepG2, 72 h after drug exposure
Method: as §1, §2

LNCaP cells = test: Cell growth inhibition assay (MTT); type: cell-based, human; settings: Homo sapiens, LNCaP, 72 h after drug exposure
Method: as §1, §2

MCF7 cells = test: Cell growth inhibition assay (MTT); type: cell-based, human; settings: Homo sapiens, MCF7; MTT, 72 h after drug exposure
Method: as §1, §2

PC-3 cells = test: Cell growth inhibition assay (MTT); type: cell-based, human; settings: Homo sapiens, PC-3, 72 h after drug exposure
Method: as §1, §2

T98G cells = test: Cell growth inhibition assay (MTT); type: cell-based, human; settings: Homo sapiens, T98G, 72 h after drug exposure
Method: as §1, §2

U87MG cells = test: Cell growth inhibition assay (MTT); type: cell-based, human; settings: Homo sapiens, U-87 MG; MTT, 72 h after drug exposure
Method: as §1, §2

GL261 cells = test: Cell growth inhibition assay (MTT); type: cell-based, murine; settings: Mus musculus, GL261, 72 h after drug exposure
Method: as §1, §2

HEK-293 cells = test: Cell growth inhibition assay (MTT), non-tumorigenic cells; type: cell-based, human; settings: Homo sapiens, HEK293, 72 h after drug exposure, non-tumorigenic cell line
Method: as §1, §2

bovine brain tubulin = test: Tubulin polymerization inhibition (turbidimetry); type: biochemical; settings: for IC50: concentration inhibiting 50% of microtubular protein polymerization in vitro, read-out: TPI IC50; for Tubulin polymerization inhibition (in words): 10 µM; for % TPI: compounds tested at 10 µM, with respect to the negative control
Method: Microtubular protein was isolated from calf brain following the modified Shelanski method, based on temperature-dependent assembly/disassembly of tubulin [45]. The protein was stored at −80 °C, and its concentration was determined using the Bradford method before each use. Tubulin polymerization, which occurs when heating a buffered tubulin sample from 4 °C to 37 °C, is accompanied by an increase in the absorbance (at 450 nm) of the sample that was monitored by a Helios α spectrophotometer. […] Then, the temperature was adjusted to 4 °C, and the temperature being shifted to 37 °C allowed for the assembly process of tubulin. The turbidity caused by tubulin polymerization was measured by the increased absorbance at 450 nm. The increase in absorbance obtained for the control sample (without the ligand), which we considered to be 100% tubulin polymerization (0% inhibition), compared with the increase in absorbance determined for the sample containing ligands yielded the degree of tubulin polymerization inhibition (TPI), which is expressed as a percentage value. For the compounds displaying TPI values over 50% at 10 µM, the IC50 value for TPI was calculated. Measurements were performed in triplicate in two independent experiments using microtubular protein from different preparations.

[2] = Aqueous solubility, shake-flask method; type: physicochemical; settings: pH 7.0 buffer, pH 7, aqueous buffer, thermodynamic from solid, shaking flask, buffered media at pH 7.0, mean of three
Method: The aqueous solubility of compounds was measured in a Helios Alfa Spectrophotometer. Calibration lines at the maximum wavelength of absorbance were determined for each compound. Then, following the shake-flask method, a suspension of 5 mg of each compound in 500 µL in pH 7.0 buffer was stirred for 72 h at room temperature. The mixture was then filtrated over a […] filter to remove the insoluble fraction. The concentration of the compound in the resulting saturated solution was determined via UV absorbance measurement and interpolation in the calibration line. The aqueous solubility values are given as the average of three independent measurements.

HT-29 cells [3] = test: Cell growth inhibition (MTT) in the presence of 10 µM verapamil (sensitivity to MDR efflux pumps); type: cell-based, human; settings: 10 µM verapamil (P-gp/MDR1 inhibitor)
Method: as §2

IC50 (HT-29 cells [1]) [µM] | IC50 (HeLa cells) [µM] | IC50 (HepG2 cells) [µM] | IC50 (LNCaP cells) [µM] | IC50 (MCF7 cells) [µM] | IC50 (PC-3 cells) [µM] | IC50 (U87MG cells) [µM] | IC50 (bovine brain tubulin) [µM] | solubility at 72 h [2] [µg/mL] | IC50 (HT-29 cells [3]) [µM] | Structure (SMILES) | IC50 (T98G cells) [µM] | IC50 (GL261 cells) [µM] | IC50 (HEK-293 cells) [µM] | Tubulin polymerization inhibition (in words) (bovine brain tubulin) | % TPI (bovine brain tubulin) [%]
0.213 | 0.388 | 0.327 | 0.325 | 0.18 | 0.422 | 0.375 | 4.4 | – | – | COc1ccc(S(=O)(=O)Nc2cccnc2Nc2ccc(O)cc2)cc1 [ABT-751, reference compound] | 0.421 | 0.309 | 1.23 | – | –
> 10 | 9.33 | > 10 | > 10 | > 10 | > 10 | > 10 | > 10 | 86 (≈ 313 µM) | > 10 | COc1ccc2nc(NCc3[nH]cnc3C)sc2c1 [Compound 4, 6-methoxy-N-((4-methyl-1H-imidazol-5-yl)methyl)benzo[d]thiazol-2-amine] | > 10 | > 10 | > 10 | not able to inhibit tubulin polymerization | 0
> 10 | 4.36 | 5.78 | 5.97 | 6.31 | > 10 | 8.31 | > 10 | 5 (≈ 18.5 µM) | > 10 | COc1ccc2nc(NCc3ccccc3)sc2c1 [Compound 5, N-benzyl-6-methoxybenzo[d]thiazol-2-amine] | > 10 | 7.25 | > 10 | – | 0
> 10 | 3.71 | 4.51 | 4.32 | 4.23 | > 10 | 6.54 | > 10 | – | > 10 | COc1ccc2nc(NCc3ccc4ccccc4c3)sc2c1 [Compound 6, 6-methoxy-N-(naphthalen-2-ylmethyl)benzo[d]thiazol-2-amine] | > 10 | 6.25 | > 10 | not able to inhibit tubulin polymerization | 7
> 10 | > 10 | > 10 | > 10 | > 10 | > 10 | > 10 | > 10 | 178 (≈ 515 µM) | > 10 | CCNC(=O)N(Cc1[nH]cnc1C)c1nc2ccc(OC)cc2s1 [Compound 10, 3-ethyl-1-(6-methoxybenzo[d]thiazol-2-yl)-1-((4-methyl-1H-imidazol-5-yl)methyl)-urea] | > 10 | > 10 | > 10 | not able to inhibit tubulin polymerization | 0
> 10 | 2.71 | 2.45 | 2.37 | 2.04 | > 10 | 2.91 | > 10 | 16 (≈ 46.9 µM) | > 10 | CCNC(=O)N(Cc1ccccc1)c1nc2ccc(OC)cc2s1 [Compound 11, 1-benzyl-3-ethyl-1-(6-methoxybenzo[d]thiazol-2-yl)urea] | > 10 | 2.93 | > 10 | – | 6
0.307 | 0.051 | 0.055 | 0.01 | 0.013 | 0.02 | 0.022 | – | – | – | CC(=O)O[C@@]12CO[C@@H]1C[C@H](O)[C@@]1(C)C(=O)[C@H](O)C3=C(C)[C@@H](OC(=O)[C@H](O)[C@@H](NC(=O)OC(C)(C)C)c4ccccc4)C[C@@](O)([C@@H](OC(=O)c4ccccc4)[C@H]21)C3(C)C [DTX, docetaxel, reference compound] | 0.059 | 0.035 | 1.55 | – | –
